{
  "source": "paper PMC7489219",
  "about": "(Molecular Brain, 2020)",
  "note": "pIC50: −log10 of the molar value. Structures can show the parent of a compound that is named as a salt.",
  "data": [
    {"molecular_target": "T1, GluN2A (Homo sapiens, UniProt Q05586+Q12879)", "T1 construct": "gene GRIN2A", "T1 sequence (Q12879 23-1464, other chains not shown)": "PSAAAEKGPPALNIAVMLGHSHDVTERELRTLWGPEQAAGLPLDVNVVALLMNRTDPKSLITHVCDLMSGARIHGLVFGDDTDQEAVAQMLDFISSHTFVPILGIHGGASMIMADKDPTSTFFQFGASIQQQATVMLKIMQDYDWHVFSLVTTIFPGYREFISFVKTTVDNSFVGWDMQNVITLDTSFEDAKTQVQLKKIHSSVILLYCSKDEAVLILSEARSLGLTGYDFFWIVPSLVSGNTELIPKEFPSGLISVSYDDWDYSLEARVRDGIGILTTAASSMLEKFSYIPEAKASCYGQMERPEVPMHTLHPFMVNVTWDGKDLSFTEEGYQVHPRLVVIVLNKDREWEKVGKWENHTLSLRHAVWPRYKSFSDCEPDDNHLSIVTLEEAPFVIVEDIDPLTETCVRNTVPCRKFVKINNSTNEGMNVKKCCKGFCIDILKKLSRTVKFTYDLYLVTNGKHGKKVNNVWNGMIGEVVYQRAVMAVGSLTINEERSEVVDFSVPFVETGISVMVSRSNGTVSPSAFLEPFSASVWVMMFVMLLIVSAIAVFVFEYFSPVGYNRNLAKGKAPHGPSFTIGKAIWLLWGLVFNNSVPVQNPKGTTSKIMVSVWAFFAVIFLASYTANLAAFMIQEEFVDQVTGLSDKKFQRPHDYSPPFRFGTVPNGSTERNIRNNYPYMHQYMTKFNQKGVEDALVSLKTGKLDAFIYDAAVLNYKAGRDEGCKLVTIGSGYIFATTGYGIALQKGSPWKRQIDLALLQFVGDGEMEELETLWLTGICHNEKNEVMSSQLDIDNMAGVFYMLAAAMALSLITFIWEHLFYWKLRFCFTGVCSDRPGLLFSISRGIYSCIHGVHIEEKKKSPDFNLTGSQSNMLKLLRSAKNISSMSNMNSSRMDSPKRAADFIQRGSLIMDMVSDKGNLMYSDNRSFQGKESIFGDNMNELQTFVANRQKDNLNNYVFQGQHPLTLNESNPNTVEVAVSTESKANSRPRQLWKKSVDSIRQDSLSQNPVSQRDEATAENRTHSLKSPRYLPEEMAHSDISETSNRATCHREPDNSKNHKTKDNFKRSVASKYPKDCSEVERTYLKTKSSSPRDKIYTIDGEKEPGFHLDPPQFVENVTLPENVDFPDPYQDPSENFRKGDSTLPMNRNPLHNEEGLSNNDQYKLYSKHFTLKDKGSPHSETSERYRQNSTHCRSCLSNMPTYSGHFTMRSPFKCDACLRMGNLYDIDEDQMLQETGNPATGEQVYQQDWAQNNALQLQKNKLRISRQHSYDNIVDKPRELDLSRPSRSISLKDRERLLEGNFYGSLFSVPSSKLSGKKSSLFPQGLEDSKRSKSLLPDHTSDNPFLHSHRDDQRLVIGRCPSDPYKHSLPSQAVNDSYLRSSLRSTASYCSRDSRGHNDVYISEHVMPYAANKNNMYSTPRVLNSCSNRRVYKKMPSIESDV", "assay": "not given", "settings": "not given", "values": [
      {"smiles": "N[C@H](CCCP(=O)(O)O)C(=O)O", "note": "[D-APV]", "pIC50": 5.83}
    ]},
    {"system": "T2, primary mouse cortical neurons", "T2 construct": "primary cortical neurons, DIV 10", "assay": "cells", "design": "Protection from NMDA-induced (30 uM, 10 min) neuronal death; Hoechst nuclear morphology by automated microscopy", "settings": "Cortical neurone, 20 h, read-out: % inhibition, inhibition of NMDA-induced cell death (protection score), 30 min pre-treatment", "procedure,_shortened": "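On DIV 10, primary mouse cortical neurons were given compound at 10 μM for 30 min at 37 °C, then 30 μM NMDA for 10 min, washed, and kept 20 h with compound. Dead cells were scored by nuclear morphology, and % protection was derived from survival relative to vehicle + NMDA and untreated controls.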", "units": {"inhibition at 10 µM": "%"}, "values": [
      {"smiles": "CCN(CC)CCOc1ccc(C(=C(Cl)c2ccccc2)c2ccccc2)cc1", "note": "[Clomifene citrate (Serophene)]", "inhibition at 10 µM": -1.18},
      {"smiles": "CNC[C@H](O)c1ccc(O)c(O)c1", "note": "[Epinephrine bitartrate (Adrenalinium)]", "inhibition at 10 µM": -0.43},
      {"smiles": "COc1ccc2cc1Oc1ccc(cc1)C[C@H]1c3cc(c(OC)cc3CCN1C)Oc1c(OC)c(OC)cc3c1[C@H](C2)N(C)CC3", "note": "[Tetrandrine (Fanchinine)]", "inhibition at 10 µM": 9.82},
      {"smiles": "OC[C@H]1O[C@@H](Oc2ccc(O)cc2)[C@H](O)[C@@H](O)[C@@H]1O", "note": "[Arbutin (Uva, p-Arbutin)]", "inhibition at 10 µM": -0.469},
      {"smiles": "CO[C@H]1/C=C/O[C@@]2(C)Oc3c(C)c(O)c4c(O)c(c(/C=N/N5CCN(C6CCCC6)CC5)c(O)c4c3C2=O)NC(=O)/C(C)=C\\C=C\\[C@H](C)[C@H](O)[C@@H](C)[C@@H](O)[C@@H](C)[C@H](OC(C)=O)[C@@H]1C", "note": "[Rifapentine (Priftin)]", "inhibition at 10 µM": 9.26},
      {"smiles": "NCCS(=O)(=O)O", "note": "[Taurine]", "inhibition at 10 µM": 8.63},
      {"smiles": "CN(C)C(=O)Oc1ccc[n+](C)c1", "note": "[Pyridostigmine Bromide (Mestinon)]", "inhibition at 10 µM": 35.3},
      {"smiles": "O=C1CCC(N2C(=O)c3ccccc3C2=O)C(=O)N1", "note": "(stereo not drawn) [Thalidomide]", "inhibition at 10 µM": -3.3},
      {"smiles": "Nc1nc2c(ncn2COCCO)c(=O)[nH]1", "note": "[Acyclovir (Aciclovir)]", "inhibition at 10 µM": -1.44},
      {"smiles": "CC=CC1=C(C(=O)O)N2C(=O)[C@@H](NC(=O)[C@H](N)c3ccc(O)cc3)[C@H]2SC1", "note": "(mixture of isomers) [Cefprozil hydrate (Cefzil)]", "inhibition at 10 µM": 0.674},
      {"smiles": "CC(C(=O)O)c1cccc(Oc2ccccc2)c1", "note": "(stereo not drawn) [Fenoprofen calcium]", "inhibition at 10 µM": 1.38},
      {"smiles": "O=C(O)Cc1ccccc1Nc1c(Cl)cccc1Cl", "note": "[Diclofenac]", "inhibition at 10 µM": -4.34},
      {"smiles": "CN(C)[C@@H](CCOc1cccc2ccccc12)c1ccccc1", "note": "[Dapoxetine hydrochloride (Priligy)]", "inhibition at 10 µM": -1.89}
    ]},
    {"molecular_target": "T3, GluN2B (Homo sapiens, UniProt Q05586+Q13224)", "T3 construct": "gene GRIN2B; with GluN1 (Q05586)", "T3 sequence (Q13224 27-1484, other chains not shown)": "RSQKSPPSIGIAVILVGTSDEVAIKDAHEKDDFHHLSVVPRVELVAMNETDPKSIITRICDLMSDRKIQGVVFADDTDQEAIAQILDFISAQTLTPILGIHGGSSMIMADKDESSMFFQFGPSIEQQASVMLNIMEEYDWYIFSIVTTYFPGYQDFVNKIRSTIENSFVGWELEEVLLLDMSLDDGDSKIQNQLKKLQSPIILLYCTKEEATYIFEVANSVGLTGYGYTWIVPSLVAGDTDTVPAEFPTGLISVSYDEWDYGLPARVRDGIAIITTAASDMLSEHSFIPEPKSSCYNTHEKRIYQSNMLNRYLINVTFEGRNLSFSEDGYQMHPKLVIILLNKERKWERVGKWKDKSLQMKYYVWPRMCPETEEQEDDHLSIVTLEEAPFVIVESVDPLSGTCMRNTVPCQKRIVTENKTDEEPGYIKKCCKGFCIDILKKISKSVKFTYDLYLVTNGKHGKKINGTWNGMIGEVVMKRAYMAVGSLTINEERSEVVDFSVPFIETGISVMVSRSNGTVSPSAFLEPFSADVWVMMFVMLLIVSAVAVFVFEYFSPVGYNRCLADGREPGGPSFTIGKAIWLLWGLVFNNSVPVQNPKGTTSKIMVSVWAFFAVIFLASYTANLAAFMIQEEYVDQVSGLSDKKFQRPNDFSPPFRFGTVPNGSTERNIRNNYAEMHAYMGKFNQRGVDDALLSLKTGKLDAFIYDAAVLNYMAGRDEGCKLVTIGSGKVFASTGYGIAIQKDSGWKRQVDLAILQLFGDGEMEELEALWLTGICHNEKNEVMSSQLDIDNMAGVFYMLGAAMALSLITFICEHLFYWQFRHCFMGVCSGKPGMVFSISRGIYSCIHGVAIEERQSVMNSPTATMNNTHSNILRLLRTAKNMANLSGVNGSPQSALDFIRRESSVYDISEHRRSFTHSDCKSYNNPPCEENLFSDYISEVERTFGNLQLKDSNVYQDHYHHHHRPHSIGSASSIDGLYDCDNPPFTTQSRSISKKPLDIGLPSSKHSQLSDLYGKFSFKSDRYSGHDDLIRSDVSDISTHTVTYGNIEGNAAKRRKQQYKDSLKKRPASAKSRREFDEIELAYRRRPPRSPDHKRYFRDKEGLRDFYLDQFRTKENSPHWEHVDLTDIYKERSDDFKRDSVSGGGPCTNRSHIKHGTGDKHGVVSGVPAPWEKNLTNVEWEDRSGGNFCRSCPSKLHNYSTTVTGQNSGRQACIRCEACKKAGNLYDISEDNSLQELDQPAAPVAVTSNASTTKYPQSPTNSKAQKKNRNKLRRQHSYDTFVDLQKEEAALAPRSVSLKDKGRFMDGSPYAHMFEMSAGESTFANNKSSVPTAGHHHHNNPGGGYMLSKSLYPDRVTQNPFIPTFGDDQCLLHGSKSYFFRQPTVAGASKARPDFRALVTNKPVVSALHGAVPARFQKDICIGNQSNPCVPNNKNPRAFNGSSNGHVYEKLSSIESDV", "assay": "automated patch clamp of HEK293 cells stably expressing human GluN1/GluN2B", "type": "cell-based", "settings": "not given", "values": [
      {"smiles": "N[C@H](CCCP(=O)(O)O)C(=O)O", "note": "[D-APV]", "pIC50": 5.94}
    ]}
  ]
}
